What was measured:
P388/BCNU = test: In vivo activity against drug resistant tumour P388/BCNU; parameters: species or system mouse; details: optimum dose 7.5 mg/kg
Protocol: (§1) CD2-F1 mice, of the same sex, weighing within a 3 gram range surrounding 20 g, are used for this test. Control and test animals are injected intraperitoneally with a suspension of 10^6 viable P388/O tumour cells on day 0. In each test several dose levels which bracket the LD20 for the compound are evaluated; each dose level group contains 6 animals. The test compounds are prepared either in physiologic saline containing 0.05% Tween 80 or distilled water containing 5% dextrose and are administered intraperitoneally on days 1,5 and 9 relative to tumour implant. Doses are on a mg/kg basis according to individual animals' body weights. The day of death for each animal is recorded and the median day of death identified for each group. The difference between the median survival time for treated and control groups is expressed as a percentage increase in life span (% ILS).
(§2) E. Activity Against Drug-Resistant Tumours
Using a similar procedure to the Lymphocytic Leukaemia P388/O test, the compound of Example 1 was evaluated against P388/O tumours which had been made resistant to the following standard, clinically used anti-tumour agents:
bis-chloronitrosourea (BCNU)

[1] = test system: DLD-1 human colon carcinoma cells; test: In vitro activity against human tumour cell line DLD-1 (proliferation); type: cell-based; details: DLD-1, 96 h, methylene blue, read-out: IC50
Protocol: (§3) Cells from the human tumour cell lines DLD-1, HCT-116, WiDr and A549 are exposed to serially diluted concentrations of test compounds over a 96 hour period in culture. The ability of such cells to proliferate over the test period is determined.
(§4) Cells in log growth are plated into 96 well multiwell tissue culture dishes in 100 μl/well of RPMI 1640 culture medium supplemented with 10% foetal calf serum, antibiotics and test compound. All compounds are formulated initially at appropriate concentrations in DMSO, the final concentrations in this solvent being twenty times that required in the plate. A final 1 in 10 dilution in complete medium is then made before adding 100 μl to each well of the plate. All compounds are evaluated at concentrations ranging serially in four fold decrements from a top concentration some four fold greater than that already known to inhibit the proliferation of cells from the mouse lymphoid neoplasm, P388D1 by about 80 to 90 percent in a primary proliferative assay.
(§5) After 96 hours the proliferation of cells exposed to test compound is compared with control untreated cells by one of two methods:
a) Culture supernatants are aspirated and cells fixed and stained by adding a solution of methylene blue (5 g per liter of 50% ethanol: water, 100 μl/well). After 30 minutes at room temperature unbound stain is washed off by immersing plates in water. Stained cells are solubilised overnight using 1% Sarkosyl (Sigma) in phosphate-buffered saline (100 μl/well). Absorbances are read by an ELISA plate spectrophotometer at a wavelength of 620 nm. The IC50 is defined as that concentration of drug which decreases absorbance to 50% of that in control (drug-free) cultures. This method is used for the DLD-1 cell line.

[2] = test system: HCT-116 human colon carcinoma cells; test: In vitro activity against human tumour cell line HCT-116 (proliferation); type: cell-based; details: HCT-116, 96 h, MTT, read-out: IC50
Protocol: as §3, §4, §5
b) 20 μl of MTT (5 mg/ml in PBS) is added to each well. After an incubation period of 4 hours the medium from each well is aspirated and replaced with 200 μl DMSO to dissolve the formazan crystals formed. Absorbances are read by an ELISA plate spectrophotometer at a wavelength of 540 nm. The IC50 is defined as that concentration of drug which decreases absorbance to 50% of that in control (drug-free) cultures. This method is used for the WiDr, HCT-116 and A549 cell lines.

P388/Cis--Pt = test: In vivo activity against drug resistant tumour P388/Cis-Pt; parameters: species or system mouse; details: optimum dose 10.0 mg/kg
P388/MTX = test: In vivo activity against drug resistant tumour P388/MTX; parameters: species or system mouse; details: optimum dose 7.5 mg/kg
Protocol: as §1, §2
Using a similar procedure to the Lymphocytic Leukaemia P388/O test, the compound of Example 1 was evaluated against P388/O tumours which had been made resistant to the following standard, clinically used anti-tumour agents: […]

P388/O tumour = test: Lymphocytic leukaemia P388/O test; type: in vivo, mouse; details: 10 mg/kg i.p. days 1, 5 and 9
Protocol: C. Lymphocytic Leukemia P388/O Test
as §1

L1210 = test: In vivo activity against murine tumour L1210; parameters: species or system mouse

SMILES: COC(=O)Nc1cn2nc(OCc3cc(OC)c(OC)c(OC)c3)ccc2n1 [Example 1, Methyl N-[6-(3,4,5-trimethoxybenzyloxy)imidazo[1,2-b]pyridazin-2-yl]carbamate]
- 60 Day Survivors (P388/BCNU): 0/6
- % ILS (P388/BCNU): +131%
- IC50 [1]: 11.6 nM
- IC50 [2]: 9.2 nM
- 60 Day Survivors (P388/Cis--Pt): 1/6
- % ILS (P388/Cis--Pt): +50%
- 60 Day Survivors (P388/MTX): 1/6
- % ILS (P388/MTX): +100%
- 30 Day survivors (P388/O tumour): 6/6
- 60 Day Survivors (P388/O tumour): 2/6
- ILS at 10 mg/kg (P388/O tumour; Mus musculus, P388, ip): 300%
- Mean % ILS (±SEM) (L1210; 10 mg/kg i.p. days 1, 5 and 9, 2 expts): 134 (±72) %
- activity in vivo against L1210 leukaemia (L1210; in words): good activity

Reference: US5380759A, “Methyl N-[6-(3,4,5-trimethoxybenzloxy)imidazo[1,2-b]pyridazin-2-zyl]carbamate used to treat leukemia” (priority 1987, dated 1995)
